# In patent US7622594B2, “Glucocortioid mimetics, methods of making them, pharmaceutical compositions, and uses thereof” (Boehringer Ingelheim Pharmaceuticals, Inc., priority 2005, dated 2009):
# Test system: IL-6 production in human foreskin fibroblast cells
# Test: Inhibition of IL-6 production in fibroblasts (cell assay for transrepression)
# Format: cell-based
# Details: IL-1 stimulated human foreskin fibroblasts
# Description: Human foreskin fibroblast cells produce IL-6 in response to stimulation by proinflammatory cytokine IL-1.
# Human foreskin fibroblast cells (ATCC Cat. No. CRL-2429) are plated on 96 well plates at 5,000 cells per well the day before use, in Iscove's Modified Dulbecco's Media (GibcoBRL Life Technologies Cat. No. 12440-053) supplemented with 10% charcoal filtered FBS (Clonetech Cat. No. SH30068) and Gentamycin (GibcoBRL Life Technologies Cat. No. 15710-064). On the next day, media in the wells is replaced with fresh media. Cells are treated with IL-1 (rhIL-1α, R&D Systems Cat. No. 200-LA) to a final concentration of 1 ng/mL, and with test compounds to final concentrations of 10^−5 M to 10^−8 M, in a total volume of 200 μL per well. Samples are done in duplicates. […] Positive control wells receive IL-1 only and represent maximum (or 100%) amount of IL-6 production. Plates are incubated at 37° C. overnight (15 to 18 hours), and supernatants are harvested at the end of incubation. IL-6 levels in the supernatants are determined by the ELISA kits for IL-6 (MedSystems Diagnostics GmbH, Vienna, Austria, Cat. No. BMS213TEN) according to manufacture's instructions. The extent of inhibition of IL-6 by test compounds is expressed in percentage relative to positive controls. IC50 values of test compounds are derived by non-linear curve fitting.
row,Compound,agonistic activity by inhibiting IL-6 production in Fibroblasts
1,"OC(c1ccc(F)c(Cl)c1)(c1ccc2c(cnn2-c2ccccc2)c1)C(F)(F)F (stereo not shown) [1-(3-Chloro-4-fluorophenyl)-2,2,2-trifluoro-1-(1-phenyl-1H-indazol-5-yl)ethanol]",agonistic activity
2,"OC(c1ccc2c(cnn2-c2ccc(F)cc2)c1)(c1csc2ccccc12)C(F)(F)F (stereo not shown) [1-Benzo[b]thiophen-3-yl-2,2,2-trifluoro-1-[1-(4-fluorophenyl)-1H-indazol-5-yl]ethanol]",agonistic activity
3,"OC(c1ccc2c(cnn2-c2ccccc2)c1)(c1cccc2ccccc12)C(F)(F)F (stereo not shown) [2,2,2-Trifluoro-1-naphthalen-1-yl-1-(1-phenyl-1H-indazol-5-yl)ethanol]",agonistic activity
4,"Cc1ccc(C(O)(c2ccc3c(cnn3-c3ccc(F)cc3)c2)C(F)(F)F)c2ccccc12 (stereo not shown) [2,2,2-Trifluoro-1-[1-(4-fluorophenyl)-1H-indazol-5-yl]-1-(4-methylnaphthalen-1-yl)ethanol]",agonistic activity
5,"OC(c1ccc2c(cnn2-c2ccc(F)cc2)c1)(c1cccc2ccccc12)C(F)(F)F (stereo not shown) [2,2,2-Trifluoro-1-[1-(4-fluorophenyl)-1H-indazol-5-yl]-1-naphthalen-1-ylethanol]",agonistic activity
6,"OC(c1ccc(F)c(Cl)c1)(c1ccc2c(cnn2-c2ccc(F)cc2)c1)C(F)(F)F (stereo not shown) [1-(3-Chloro-4-fluorophenyl)-2,2,2-trifluoro-1-[1-(4-fluorophenyl)-1H-indazol-5-yl]ethanol]",agonistic activity
7,"OC(c1ccc2c(cnn2-c2ccccc2)c1)(c1ccnc2ccccc12)C(F)(F)F (stereo not shown) [2,2,2-Trifluoro-1-(1-phenyl-1H-indazol-5-yl)-1-quinolin-4-ylethanol]",agonistic activity
8,"OC(c1ccc2c(cnn2-c2ccccc2)c1)(c1ccc(F)c2ccccc12)C(F)(F)F (stereo not shown) [2,2,2-Trifluoro-1-(4-fluoronaphthalen-1-yl)-1-(1-phenyl-1H-indazol-5-yl)ethanol]",agonistic activity
9,"OC(c1ccc2c(cnn2-c2ccc(F)cc2)c1)(c1ccc(F)c2ccccc12)C(F)(F)F (stereo not shown) [2,2,2-Trifluoro-1-(4-fluoronaphthalen-1-yl)-1-[1-(4-fluorophenyl)-1H-indazol-5-yl]ethanol]",agonistic activity
10,"OC(c1ccc2c(cnn2-c2ccccc2)c1)(c1csc2ccccc12)C(F)(F)F (stereo not shown) [1-Benzo[b]thiophen-3-yl-2,2,2-trifluoro-1-(1-phenyl-1H-indazol-5-yl)ethanol]",agonistic activity
